Source: ChEMBL document CHEMBL1201862, “PubChem BioAssay data set” (2004)
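Five compound concentrations were applied to cells in 96-well plates for 48 hours; endpoints were derived by simple linear interpolation of the resulting dose-response curve. Abbreviation: GI50, concentration required for 50% inhibition of growth.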 Calls of active or inactive are those of the source. No stated cut-off is given here; in the data, active = GI50 up to about 1.1 µM and inactive = higher.

Tests used:
Assay in all cases: growth of human tumour cells (NCI), 48 h
[1] = system: A498
[2] = system: CAKI-1
[3] = system: EKVX
[4] = system: HCT-15
[5] = system: KM12
[6] = system: MOLT-4
[7] = system: Malme-3M
[8] = system: NCI-H460
[9] = system: OVCAR-4
[10] = system: OVCAR-5
[11] = system: RPMI-8226
[12] = system: SF-295
[13] = system: SF-539
[14] = system: SK-MEL-28
[15] = system: SK-MEL-5
[16] = system: SN12C
[17] = system: SNB-75
[18] = system: U-251
[19] = system: UACC-62
[20] = system: UO-31

Row | SMILES | GI50 [1] | GI50 [2] | GI50 [3] | GI50 [4] [µM] | GI50 [5] | GI50 [6] | GI50 [7] | GI50 [8] | GI50 [9] | GI50 [10] | GI50 [11] | GI50 [12] | GI50 [13] | GI50 [14] | GI50 [15] | GI50 [16] | GI50 [17] | GI50 [18] | GI50 [19] | GI50 [20]
1 | CC(=O)C(=O)NC1/C=C(C)\C=C/C(O)C/C=C(C)\C=C/C(O)CC2OC(=O)C1(C)C(=O)C2C (configuration not stated) | > 100 µM (inactive) | > 100 µM (inactive) | > 100 µM (inactive) | > 100 | > 100 µM (inactive) | > 31.2 µM (inactive) | > 100 µM (inactive) | > 100 µM (inactive) | > 100 µM (inactive) | > 100 µM (inactive) | > 55.1 µM (inactive) | > 100 µM (inactive) | > 100 µM (inactive) | > 100 µM (inactive) | > 100 µM (inactive) | > 100 µM (inactive) | > 100 µM (inactive) | > 100 µM (inactive) | > 100 µM (inactive) | > 100 µM (inactive)
2 | CSC(=S)N(C)c1nc(N(C)C)s[s+]1 | 44.4 µM (inactive) | > 100 µM (inactive) | > 100 µM (inactive) | > 100 | > 100 µM (inactive) | > 100 µM (inactive) | > 100 µM (inactive) | > 100 µM (inactive) | > 100 µM (inactive) | > 100 µM (inactive) | 19.9 µM (inactive) | > 100 µM (inactive) | > 100 µM (inactive) | > 100 µM (inactive) | > 100 µM (inactive) | > 100 µM (inactive) | > 100 µM (inactive) | > 100 µM (inactive) | > 100 µM (inactive) | > 100 µM (inactive)
3 | CSc1nc(NC2OC(CO)C(O)C(O)C2O)c(N)c(=O)n1C (configuration not stated) | > 100 µM (inactive) | – | > 100 µM (inactive) | > 100 | > 100 µM (inactive) | > 100 µM (inactive) | > 100 µM (inactive) | > 100 µM (inactive) | > 100 µM (inactive) | > 100 µM (inactive) | > 100 µM (inactive) | > 100 µM (inactive) | > 100 µM (inactive) | > 100 µM (inactive) | > 100 µM (inactive) | > 100 µM (inactive) | > 100 µM (inactive) | > 100 µM (inactive) | > 100 µM (inactive) | > 100 µM (inactive)
4 | O=S(=O)(CCBr)CCBr | 6.3 µM (inactive) | 5.3 µM (inactive) | – | 2.64 | 13.9 µM (inactive) | 2.58 µM (inactive) | 3.17 µM (inactive) | 12 µM (inactive) | 9.57 µM (inactive) | 13.7 µM (inactive) | 4.53 µM (inactive) | 15.7 µM (inactive) | 6.22 µM (inactive) | 2.67 µM (inactive) | 7.35 µM (inactive) | 9.02 µM (inactive) | 12.8 µM (inactive) | 15.7 µM (inactive) | 2.96 µM (inactive) | 30.8 µM (inactive)
5 | NCCCn1c(Cl)nc2ccccc21 | > 100 µM (inactive) | > 100 µM (inactive) | > 100 µM (inactive) | > 100 | > 100 µM (inactive) | > 100 µM (inactive) | > 100 µM (inactive) | > 100 µM (inactive) | > 100 µM (inactive) | > 100 µM (inactive) | > 100 µM (inactive) | > 100 µM (inactive) | – | > 100 µM (inactive) | > 100 µM (inactive) | > 100 µM (inactive) | > 100 µM (inactive) | > 100 µM (inactive) | > 100 µM (inactive) | > 100 µM (inactive)
6 | CNC(=S)N/N=C(/C)CCC/C(C)=N/NC(=S)NC | > 75 µM (inactive) | > 100 µM (inactive) | 0.778 µM (active) | 11 | > 100 µM (inactive) | 0.0414 µM (active) | > 90.4 µM (inactive) | > 56.9 µM (inactive) | 1.69 µM (inactive) | 1 µM (active) | 5.61 µM (inactive) | > 100 µM (inactive) | > 100 µM (inactive) | > 34.6 µM (inactive) | 16.4 µM (inactive) | > 74.5 µM (inactive) | 29 µM (inactive) | > 42.1 µM (inactive) | > 58.2 µM (inactive) | > 54.8 µM (inactive)
7 | C[n+]1ccc(Nc2ccc(NC(=O)c3ccc(Nc4cc[n+](C)c5ccc([N+](=O)[O-])cc45)cc3[N+](=O)[O-])cc2)cc1 | 36.7 µM (inactive) | > 75.3 µM (inactive) | 45.7 µM (inactive) | 44.8 | 65.9 µM (inactive) | 32.3 µM (inactive) | 19.7 µM (inactive) | 25.7 µM (inactive) | 51.2 µM (inactive) | – | 24 µM (inactive) | 30.4 µM (inactive) | 22.8 µM (inactive) | 25.9 µM (inactive) | 24.1 µM (inactive) | 57.4 µM (inactive) | > 57.4 µM (inactive) | 22.6 µM (inactive) | 26.1 µM (inactive) | 45.3 µM (inactive)
8 | CO/N=C1/c2sccc2[C@H](NC(=O)C(Cc2ccccc2)NC(=O)OC(C)(C)C)[C@@H]1O (some centres not stated) | > 100 µM (inactive) | > 100 µM (inactive) | > 100 µM (inactive) | > 100 | – | 93.3 µM (inactive) | > 100 µM (inactive) | > 100 µM (inactive) | 45.6 µM (inactive) | > 100 µM (inactive) | – | > 100 µM (inactive) | > 100 µM (inactive) | > 100 µM (inactive) | > 100 µM (inactive) | > 100 µM (inactive) | > 100 µM (inactive) | > 100 µM (inactive) | > 100 µM (inactive) | 51.4 µM (inactive)
9 | CCC1CN2CCc3cc(OC)c(OC)cc3C2CC1CC1c2cc(OC)c(OC)cc2CCN1C(=O)C(N)Cc1ccccc1.[O-][Cl+3]([O-])([O-])O (configuration not stated) | 3.24 µM (inactive) | 1.95 µM (inactive) | 1.26 µM (inactive) | 1.72 | 1.77 µM (inactive) | 0.239 µM (active) | 2.77 µM (inactive) | 0.538 µM (active) | – | 3.08 µM (inactive) | 1.94 µM (inactive) | 2.05 µM (inactive) | 2.56 µM (inactive) | 3.32 µM (inactive) | 2.12 µM (inactive) | 2.35 µM (inactive) | 2.94 µM (inactive) | 2.06 µM (inactive) | 3.11 µM (inactive) | 2.13 µM (inactive)
10 | C=C1CC(OC)(C(OC)C(=O)N(C)[C@H]2OCO[C@H]3C2O[C@H](C[C@@H](COC)OC)C(C)(C)C3OC)O[C@H](C)[C@@H]1C (some centres not stated) | 12 µM (inactive) | 5.69 µM (inactive) | 17 µM (inactive) | 18 | 5.33 µM (inactive) | 7.18 µM (inactive) | – | 9.46 µM (inactive) | 3.61 µM (inactive) | 26.7 µM (inactive) | 17.2 µM (inactive) | 7 µM (inactive) | 14.2 µM (inactive) | 8.18 µM (inactive) | > 9.16 µM (inactive) | 22.5 µM (inactive) | 4.4 µM (inactive) | 10.6 µM (inactive) | 14.5 µM (inactive) | 15.7 µM (inactive)
11 | Cc1cc(C)c2c(c1)CC1(Cc3c(C)ccc(C)c3C1=O)C2=O (configuration not stated) | > 100 µM (inactive) | > 100 µM (inactive) | > 100 µM (inactive) | > 100 | > 100 µM (inactive) | > 100 µM (inactive) | > 100 µM (inactive) | > 100 µM (inactive) | > 100 µM (inactive) | > 100 µM (inactive) | > 100 µM (inactive) | > 100 µM (inactive) | > 100 µM (inactive) | > 100 µM (inactive) | > 100 µM (inactive) | > 100 µM (inactive) | > 100 µM (inactive) | > 100 µM (inactive) | > 100 µM (inactive) | –
12 | CCOC(=O)c1csc(NC(=O)C(C)N2CCOCC2)n1 (configuration not stated) | > 100 µM (inactive) | > 100 µM (inactive) | > 100 µM (inactive) | > 100 | > 100 µM (inactive) | > 100 µM (inactive) | > 100 µM (inactive) | > 100 µM (inactive) | > 100 µM (inactive) | > 100 µM (inactive) | > 100 µM (inactive) | > 100 µM (inactive) | > 100 µM (inactive) | > 100 µM (inactive) | > 100 µM (inactive) | – | > 100 µM (inactive) | > 100 µM (inactive) | > 100 µM (inactive) | > 100 µM (inactive)
13 | N#CCCN(CCC#N)c1ccc(/C=C2\N=C(c3cc([N+](=O)[O-])ccc3Cl)N(S(=O)(=O)c3ccccc3)C2=O)cc1 | – | > 100 µM (inactive) | > 100 µM (inactive) | > 100 | > 100 µM (inactive) | > 100 µM (inactive) | > 100 µM (inactive) | – | > 100 µM (inactive) | > 100 µM (inactive) | > 100 µM (inactive) | > 100 µM (inactive) | > 100 µM (inactive) | > 100 µM (inactive) | > 100 µM (inactive) | > 100 µM (inactive) | – | > 100 µM (inactive) | > 100 µM (inactive) | > 100 µM (inactive)
